Series [1] in a line: obesity model, reduction of food intake in C57BL/6J-DIO mice. Format: in vivo. The method, then: (§1) To evaluate acute in vivo efficacy of various compounds, 7 weeks-old male C57BL/6J mice are obtained from The Jackson Laboratory (Bar Harbor, Me.) and 6 weeks-old lean Zucker fa/? rats are purchased from Charles River Laboratories (Wilmington, Mass.). Mice and rats are single housed in a temperature-controlled (25° C.) facility with a 12-h light/dark cycle. Animals are allowed normal chow diet (Rodent chow #5001, PharmaServ, Framingham, Mass.) and water ad libitum. After one week acclimation, animals are randomized to vehicle (saline) or treatment groups. Animals are fasted overnight (16 hrs) and orally dosed with vehicle or compounds. Thirty minutes after compound administration, animals are given a weighed amount of food, and food intake was recorded 30 minutes, 1 h, 2 h, 4 h, 7 h and 24 h after refeeding.
(§2) To assess in vivo efficacy of various 5-HT2C compounds on weight loss, 5 weeks-old male C57BL/6J-DIO mice were fed a high-fat high-sucrose diet (58 kcal % fat, 16.4 kcal % protein, 25.5 kcal % carbohydrate) for 11 weeks. 6 weeks-old male Zucker fa/fa rats purchased from Charles River Laboratories were also used. Mice and rats were single housed in a temperature-controlled (25° C.) facility with a 12-h light/dark cycle. Animals were allowed food and water ad libitum. After one week acclimation, animals were randomized to vehicle (saline) or treatment groups. Animals were orally dosed once daily for 14 days. Body weight, food consumption, and/or body composition (NMR) were recorded. Epidydimal adipose tissue was collected at the end of the study.

Series [2] has as its target T1, human 5-hydroxytryptamine-2C (h5-HT2C) receptor (Homo sapiens, UniProt P28335).
T1 construct: expressed in transfected cells; host or cells: CHO (Chinese Hamster Ovary) cells; membrane preparation
T1 sequence (P28335 33-458): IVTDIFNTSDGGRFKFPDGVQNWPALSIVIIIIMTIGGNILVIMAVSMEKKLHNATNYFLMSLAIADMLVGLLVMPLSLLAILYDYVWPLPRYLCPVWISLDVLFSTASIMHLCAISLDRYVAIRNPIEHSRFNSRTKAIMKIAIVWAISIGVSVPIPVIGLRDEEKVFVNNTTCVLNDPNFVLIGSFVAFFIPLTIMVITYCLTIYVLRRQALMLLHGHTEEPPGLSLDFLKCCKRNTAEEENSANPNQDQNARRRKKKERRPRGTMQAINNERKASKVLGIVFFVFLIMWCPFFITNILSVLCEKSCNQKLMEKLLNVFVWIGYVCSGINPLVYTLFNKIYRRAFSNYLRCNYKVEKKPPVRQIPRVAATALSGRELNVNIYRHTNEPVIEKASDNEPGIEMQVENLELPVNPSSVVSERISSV
The series can be described thus: [125I]DOI binding to membranes of CHO cells expressing h5-HT2C receptor. Conditions: read-out: 5-HT2C Binding Ki avg.

For the next series, the target named is T2, human 5-HT2C receptor (Homo sapiens, UniProt P28335).
T2 sequence (P28335 33-458): T1 sequence (P28335 33-458)
Description: calcium mobilization (FLIPR) in CHO cells stably expressing the human 5-HT2C receptor. Format: cell-based. Conditions: for Emax: CHO, read-out: 5-HT2C Function EMax (%); for EC50: calcium mobilization, read-out: 5-HT2C Function EC50. Background: Calcium flux is commonly read through the fluorescence of an indicator in the cells.

The nature of series [3]: obesity model, reduction of food intake in Zucker rats. Format: in vivo. The method, then:
as §1, §2

Counter-ions that a name gives are not always drawn. A value given as a limit tells only on which side of the number the result lay.

Usually melting point stands for the temperature, or range, at which the solid turns liquid. On to `CCNC[C@H]1CCc2cc(F)cc(-c3c(Cl)cccc3Cl)c2O1` (as salt: hydrochloride) [Compound 58, N-{[(2R)-8-(2,6-dichlorophenyl)-6-fluoro-3,4-dihydro-2H-chromen-2-yl]methyl}ethanamine hydrochloride], for which the melting point is > 225 °C.

The molecule `NC[C@H]1C=Cc2cc(F)cc(-c3cc(Cl)ccc3Cl)c2O1` (as salt: hydrochloride) [Compound 63, {[(2R)-8-(2,5-dichlorophenyl)-6-fluoro-2H-chromen-2-yl]methyl}amine hydrochloride] came in with a melting point of 217 to 219 °C.

Molecule `NC[C@H]1CCc2cc(F)cc(-c3ccccc3-c3ccccc3)c2O1` (as salt: hydrochloride) returned a melting point of 98 °C.

The molecule `NC[C@H]1CCc2cc(F)cc(-c3c(Cl)cccc3Cl)c2O1` (as salt: hydrochloride) [Compound 57, {[(2R)-8-(2,6-dichlorophenyl)-6-fluoro-3,4-dihydro-2H-chromen-2-yl]methyl}amine hydrochloride] yielded a melting point of 190 to 192 °C.

The molecule `NC[C@H]1CCc2ccc(F)c(-c3ccccc3Cl)c2O1` (as salt: hydrochloride) [Compound 71, ((2R)-8-(2-chlorophenyl)-7-fluorochroman-2-yl)methanamine hydrochloride] gave a melting point of 223 to 225 °C.

With `COc1ccccc1-c1cc(F)cc2c1O[C@@H](CN)C=C2` (as salt: hydrochloride) [Compound 65, {[(2R)-6-fluoro-8-(2-methoxyphenyl)-2H-chromen-2-yl]methyl}amine hydrochloride], the melting point was in the range of 198 to 200 °C.

As to `NC[C@H]1C=Cc2cc(F)cc(-c3c(Cl)cccc3Cl)c2O1` (as salt: hydrochloride) [Compound 66, {[(2R)-8-(2,6-dichlorophenyl)-6-fluoro-2H-chromen-2-yl]methyl}amine hydrochloride], the melting point fell in the range of 153 to 155 °C.

As for `Cc1cc(Cl)ccc1-c1c(F)ccc2c1O[C@@H](CN)CC2` (as salt: hydrochloride) [Compound 72, ((2R)-8-(4-Chloro-2-methylphenyl)-7-fluorochroman-2-yl)methanamine hydrochloride], the melting point lay in the range of 100 to 102 °C.

As for `NC[C@H]1CCc2ccc(F)c(-c3ccc(Cl)cc3Cl)c2O1` (as salt: hydrochloride), the melting point lay in the range of 164 to 166 °C.

Turning to `NC[C@H]1CCc2ccc(Cl)c(-c3ccccc3Cl)c2O1` (as salt: hydrochloride), the melting point was 220 to 222 °C.

For `COc1ccccc1-c1cc(F)cc2c1O[C@@H](CN)CC2` (as salt: hydrochloride) [Compound 38, 1-[(2R)-6-fluoro-8-(2-methoxyphenyl)-3,4-dihydro-2H-chromen-2-yl]methanamine hydrochloride], the melting point is 100 °C (dec.).

For the molecule `Cc1ccccc1-c1c(Cl)ccc2c1O[C@@H](CN)CC2` (as salt: hydrochloride) [Compound 69, ((2R)-7-Chloro-8-o-tolylchroman-2-yl)methanamine hydrochloride], the melting point worked out at 155 °C.

The molecule `NC[C@H]1CCc2cccc(-c3c(Cl)cccc3Cl)c2O1` (as salt: hydrochloride) [Compound 36, {[(2R)-8-(2,6-dichlorophenyl)-3,4-dihydro-2H-chromen-2-yl]methyl}amine hydrochloride] registered a melting point of 188 to 190 °C.

Turning to `NC[C@H]1C=Cc2cc(F)cc(-c3ccccc3Cl)c2O1` (as salt: hydrochloride) [Compound 64, {[(2R)-8-(2-chlorophenyl)-6-fluoro-2H-chromen-2-yl]methyl}amine hydrochloride], the melting point fell in the range of 145 to 147 °C.

The Ki is the dissociation constant of the complex between target and ligand, obtained from inhibition or displacement. Broadly, the Emax is the size of the effect at its maximum, as opposed to the concentration needed. Usually EC50 stands for the concentration needed to bring the measured effect to its halfway point. On to `NC[C@H]1CCc2cccc(-c3c(Cl)cccc3Cl)c2O1` [Compound 36, {[(2R)-8-(2,6-dichlorophenyl)-3,4-dihydro-2H-chromen-2-yl]methyl}amine hydrochloride], for which the “% Reduction food intake (vs vehicle)” value in series [1] (30 mpk oral, 0.5 hour) is 86 ± 11%; in series [1] (30 mpk oral, 2 hours), 72 ± 7%; in series [1] (30 mpk oral, 4 hours), 65 ± 8%; in series [1] (50 mpk oral, 0.5 hour), 83 ± 6%; in series [1] (50 mpk oral, 2 hours) it was 77 ± 6%; in series [1] (50 mpk oral, 4 hours), 67 ± 9%. Besides, the “% Reduction food intake (vs vehicle)” value is reported as 0 ± 16% in series [3] (30 mpk oral, 0.5 hour); 0 ± 8% in series [3] (30 mpk oral, 2 hours); 0 ± 9% in series [3] (30 mpk oral, 4 hours); 58 ± 9% in series [3] (50 mpk oral, 0.5 hour); 11 ± 17% in series [3] (50 mpk oral, 2 hours); 0 ± 13% in series [3] (50 mpk oral, 4 hours). Besides, the Ki in series [2] was ≤ 10 nM. Also, at human 5-HT2C receptor, the Emax turned out to be 80%. For the same molecule, on human 5-HT2C receptor, the EC50 is < 50 nM.

With `CNCC1CCc2cccc(-c3ccccc3Cl)c2O1` (centres unmarked) [Compound 1, N-{[8-(2-chlorophenyl)-3,4-dihydro-2H-chromen-2-yl]methyl}-N-methylamine hydrochloride], the Ki in series [2] was in the range of 10 to 50 nM. On human 5-HT2C receptor, the Emax was 80% and the EC50 is < 50 nM.

`Cc1ccccc1-c1cccc2c1O[C@H](CN)CC2` [Compound 33, {[(2S)-8-(2-methylphenyl)-3,4-dihydro-2H-chromen-2-yl]methyl}amine hydrochloride]: the Ki in series [2] was in the range of 10 to 50 nM. Moreover, at human 5-HT2C receptor, the Emax worked out at 80% and the EC50 is > 200 nM.

For `CNC[C@H]1CCc2cccc(-c3cc(Cl)ccc3Cl)c2O1` [Compound 3, {[(2R)-8-(2,5-dichlorophenyl)-3,4-dihydro-2H-chromen-2-yl]methyl}methylamine hydrochloride], the Ki in series [2] was ≤ 10 nM. Further, on human 5-HT2C receptor, the Emax was determined as 90% and the EC50 is < 50 nM.

In the case of `CNC[C@H]1CCc2cccc(-c3ccc(OC)cc3OC)c2O1` [Compound 7, N-{[(2R)-8-(2,4-dimethoxyphenyl)-3,4-dihydro-2H-chromen-2-yl]methyl}-N-methylamine hydrochloride], in series [2], the Ki is ≤ 10 nM. In addition, at human 5-HT2C receptor, the Emax amounted to 90% and the EC50 is < 50 nM.

As for `NC[C@H]1C=Cc2cc(F)cc(-c3c(Cl)cccc3Cl)c2O1` [Compound 66, {[(2R)-8-(2,6-dichlorophenyl)-6-fluoro-2H-chromen-2-yl]methyl}amine hydrochloride], the inhibition constant Ki in series [2] is ≤ 10 nM. At human 5-HT2C receptor, the Emax amounted to 90% and the 50% effective concentration (EC50) was < 50 nM.

The values above are taken from patent publication US7365095B2, “Chromane and chromene derivatives and uses thereof” (Wyeth, priority 2005, dated 2008).
